In patent US20060019270A1, “Global DNA methylation assessment using bisulfite PCR” (Board of Regents The University of Texas System, priority 2004, published 2006):

How the values were obtained:
[1] = tested on: Alu element methylation in SW48 cells; assay: COBRA (MboI) of Alu repetitive element PCR, SW48 cells treated with DAC; format: cell-based, human; conditions: 5 μM DAC for three days, decrease from 28%
Procedure: (§1) Hct116, RKO and SW48, colon cancer cell lines (American Type Culture Collection, Manassas, Va.), were cultured using standard methods. Cells were treated with 5 μM 5-aza-2′deoxycytidine (DAC) for three days prior to being harvested. DNA from cell lines and peripheral blood leukocytes was extracted using phenol-chloroform extraction methods well known to one with skill on the art.
(§2) Bisulfite modification of genomic DNA is known in the art (see Clark et. al, 1994). In brief, 1.5 μg prepared 10 mM hydroquinone (Sigma) and 520 μl of 3M Sodium Bisulfite (Sigma) at pH=5.0 were added and mixed. The samples were overlayed with mineral oil to prevent evaporation and incubated at 50° C. for 16 hours. […] Bisulfite treated DNA was stored at −20° C. until ready for use.
(§3) Methylation analysis of Alu repetitive elements was performed initially by the COBRA assay. […] The digested PCR product was then separated by polyacrylamide gel electrophoresis or the PCR products were quantitated using a capillary electrophoresis system, an Agilent 2100 Bioanalyzer (Agilent Technologies, Palo Alto, Calif.).
(§4) In order to test whether Alu element […] LINE-1 methylation could approximate global methylation, COBRA, restriction digestion of the repetitive element PCR product, was used to quantitate DNA methylation in cell lines treated with 5-aza-2′deoxycytidine (DAC) (FIG. 3). […]

[2] = tested on: Alu element methylation in RKO cells; assay: COBRA (MboI) of Alu repetitive element PCR, RKO cells treated with DAC; format: cell-based, human; conditions: 5 μM DAC for three days, decrease from 26%
Procedure: as §1, §2, §3, §4

[3] = tested on: Alu element methylation in Hct116 cells; assay: COBRA (MboI) of Alu repetitive element PCR, Hct116 cells treated with DAC; format: cell-based, human; conditions: 5 μM DAC for three days, 29% prior to treatment
Procedure: as §1, §2, §3, §4

[4] = tested on: LINE-1 methylation in RKO cells; assay: COBRA (HinfI) of LINE-1 PCR, RKO cells treated with DAC; format: cell-based, human; conditions: 5 μM DAC for three days, decrease from 67%
Procedure: as §1
Bisulfite modification of genomic DNA is known in the art (see Clark et. al, 1994). In brief, 1.5 μg prepared 10 mM hydroquinone (Sigma) and 520 μl of 3M Sodium Bisulfite (Sigma) at pH=5.0 were added and mixed. The samples were overlayed with mineral oil to prevent evaporation and incubated at 50° C. for 16 hours. The bisulfite treated DNA was isolated using Wizard DNA Clean-Up System (Promega). The DNA was eluted by 50 μl of warm water and 5.5 μl of 3M NaOH were added for 5 minutes. The DNA was ethanol precipitated with glycogen as a carrier and resuspended in 20 μl water. Bisulfite treated DNA was stored at −20° C. until ready for use. […]
In order to test whether Alu element […] LINE-1 methylation could approximate global methylation, COBRA, restriction digestion of the repetitive element PCR product, was used to quantitate DNA methylation in cell lines treated with 5-aza-2′deoxycytidine (DAC) (FIG. 3). […] Thus both assays reliably detected inhibition of methylation induced by DAC. […]

[5] = tested on: leukemia (AML/MDS, CML/CMML) patients; assay: Clinical response in the High Dose and Low Dose decitabine studies; format: in vivo, human
Procedure: FIG. 6 illustrates treatment schema of patient samples. Patients were treated as part of a Phase II study of Decitabine which was given initially a dose of 90 mg/m2 twice daily for 5 consecutive days. This dose was later decreased to 50 mg/m2 twice daily due to toxicity. In this “High” Dose Study a total dose of 500-900 mg/m2 of decitabine was given over a 5 day period. Peripheral blood specimens were collected on day 0 or 1 prior to treatment, days 2-4 during treatment, and on days 5 or 6 after the completion of treatment. In the second study, a Phase I strategy of “Low” Dose Decitabine was used. This study was designed to take advantage of Decitabine's demethylating properties. Escalating doses of Decitabine of 5, 10, 15 and 20 mg/m2 were given as ten daily doses over a two week period. The total dose delivered was only 50 to 200 mg/m2 over a 14 day period. Peripheral blood specimens were collected on day 0 or 1 prior to treatment, and during days 2-14 of treatment;
Patient samples were collected from patients treated as part of two clinical studies using 5-aza-2′deoxycytidine (decitabine) as a single agent. The first study treated patients with 50-90 mg/m2 of decitabine twice daily for 5 consecutive days (See FIG. 8). The second study was a phase I study which attempted to capitalize on the demethylating properties of decitabine by using a lower dose of decitabine, 5-20 mg/m^2 once daily, for a longer period of time, 10 days over a two week period (See FIG. 8). Peripheral blood samples were collected prior to, during and after treatment. Donation of blood samples for laboratory studies was voluntary and […] were collected from 41 patients participating in both studies (See Table 4). Due to competing protocols and the availability of patients at the time of the two respective studies the majority of the patients enrolled on DM−, the “High-Dose” study were CML patients and the majority of the patients enrolled on DM−, the “Low-Dose” study were AML or High Risk MDS patients.
Donation of peripheral blood for laboratory analysis was voluntary, and only some of the patients enrolled on the two studies participated. A total of 134 samples were collected for analysis (52 in the High Dose Study and 82 in the Low Dose Study). The majority of patients treated in the High Dose Study were CML patients, however, the majority of patients treated in the Low Dose Study were AML or High risk MDS patients.

[6] = Total of both studies, 41 patients

Nc1ncn([C@H]2C[C@H](O)[C@@H](CO)O2)c(=O)n1 [decitabine, 5-aza-2′-deoxycytidine]
Alu methylation after treatment with DAC [1]: 27% | Alu element methylation after treatment with DAC [2]: 21% | Alu element methylation after treatment with DAC [3]: 16% | LINE-1 methylation after treatment with DAC [4]: 29% | Response Rate ([5]; High Dose Study, 18 patients): 39% | Treatment Response CR/PR (patients) ([5]; High Dose Study, 18 patients): 7 | Treatment Response No Response (patients) ([5]; High Dose Study, 18 patients): 11 | Response Rate ([5]; Low Dose Study, 23 patients): 35% | Treatment Response CR/PR (patients) ([5]; Low Dose Study, 23 patients): 7 | Treatment Response No Response (patients) ([5]; Low Dose Study, 23 patients): 13 | Response Rate [5, 6]: 34% | Treatment Response CR/PR (patients) [5, 6]: 14 | Treatment Response No Response (patients) [5, 6]: 24
